# pIC50: −log10 of the molar value.
# Legend:
# [1] = system: Female MRL/MpJ-faslpr/J mice; assay: Efficacy study in SLE animal model; format: in vivo, mouse; details: 50 mg/kg PO QD
# Method: A mouse model of systemic lupus erythematosus (SLE) was used to evaluate the ability of ALPK1 inhibitors to treat this condition. Female MRL/MpJ-faslpr/J mice were treated with test compound (T007) for 9 weeks. At about 13 weeks of age (study day 0), female mice were randomized into two treatment groups of 10 mice per group, and daily (QD) oral (PO) treatment with vehicle (5% PEG400, 95% methylcellulose [MC]) or the test compound, T007 (50 mg/kg) was initiated. The animals were euthanized for necropsy and tissue collection at age 22 weeks.
# hALPK1-V1092A = hALPK1-V1092A (Homo sapiens (Human), UniProt Q96QP1, V1092A); assay: Inhibition of IL-8 secretion in HEK293 cells transiently transfected with hALPK1-V1092A; format: cell-based; details: transient transfection, 24 hours with compound, IL-8 ELISA, relative to wild-type HEK293 cells; read-out: Half maximal inhibitory concentration (IC50) of IL-8 secretion in cells expressing V1092A mutant
# Chain of hALPK1-V1092A (Q96QP1 whole entry V1092A): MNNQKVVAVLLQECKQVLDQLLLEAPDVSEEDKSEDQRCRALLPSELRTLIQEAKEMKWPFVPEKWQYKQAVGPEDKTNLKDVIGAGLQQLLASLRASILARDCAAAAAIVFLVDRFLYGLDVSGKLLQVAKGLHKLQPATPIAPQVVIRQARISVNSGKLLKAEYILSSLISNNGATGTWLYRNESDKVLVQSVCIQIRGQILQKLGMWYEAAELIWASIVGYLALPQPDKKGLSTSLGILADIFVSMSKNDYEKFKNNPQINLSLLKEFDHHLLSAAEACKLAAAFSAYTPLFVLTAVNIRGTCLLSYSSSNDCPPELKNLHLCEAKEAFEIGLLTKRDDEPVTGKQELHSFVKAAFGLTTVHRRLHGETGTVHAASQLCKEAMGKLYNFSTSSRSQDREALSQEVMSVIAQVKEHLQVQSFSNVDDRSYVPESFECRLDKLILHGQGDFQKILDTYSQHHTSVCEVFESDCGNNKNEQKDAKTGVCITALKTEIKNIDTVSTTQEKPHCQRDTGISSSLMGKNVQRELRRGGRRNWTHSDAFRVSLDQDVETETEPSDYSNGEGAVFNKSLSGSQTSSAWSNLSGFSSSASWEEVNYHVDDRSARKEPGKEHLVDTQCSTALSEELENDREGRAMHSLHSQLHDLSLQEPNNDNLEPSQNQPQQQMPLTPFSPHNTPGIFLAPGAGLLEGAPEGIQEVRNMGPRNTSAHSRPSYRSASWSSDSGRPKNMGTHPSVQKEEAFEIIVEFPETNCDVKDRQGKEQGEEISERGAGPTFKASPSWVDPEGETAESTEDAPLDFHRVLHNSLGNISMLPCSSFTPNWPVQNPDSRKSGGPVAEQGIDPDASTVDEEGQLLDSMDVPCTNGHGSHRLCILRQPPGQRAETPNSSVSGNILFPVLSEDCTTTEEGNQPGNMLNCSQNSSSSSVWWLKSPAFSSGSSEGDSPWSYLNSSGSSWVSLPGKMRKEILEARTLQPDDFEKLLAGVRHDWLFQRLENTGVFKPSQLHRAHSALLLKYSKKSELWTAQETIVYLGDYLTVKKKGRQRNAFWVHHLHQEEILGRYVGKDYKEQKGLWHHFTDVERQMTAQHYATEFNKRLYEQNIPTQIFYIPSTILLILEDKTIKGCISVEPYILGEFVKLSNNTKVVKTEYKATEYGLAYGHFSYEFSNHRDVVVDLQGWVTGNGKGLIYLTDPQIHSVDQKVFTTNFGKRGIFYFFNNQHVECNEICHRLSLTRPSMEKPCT
# Text: (§1) Activating mutations in ALPK1 are associated with diseases and disorders such as cancer, spiroandenoma, spiroandenocarcinoma, ROSAH syndrome, and PFAPA syndrome. We conducted further experiments to evaluate the ability of representative compounds to inhibit ALPK1 in the context of two activating mutations, T237M and V1092A. In preliminary experiments we determined that IL-8 protein secretion was elevated in cells transiently transfected with human ALPK1 expression vectors containing each of these activating mutations. Accordingly, we used IL-8 secretion as an indicator of activated ALPK1 inhibition in cells expressing these mutations.
# (§2) HEK293 cells were cultured as described above prior to transient transfection with either empty vector or an expression vector encoding (i) human ALPK1 (hALPK1), (ii) hALPK1 with the T237M activating mutation (hALPK1-T237M) (iii) hALPK1 with the V1092A activating mutation (hALPK1-V1092A), or (iv) a kinase dead ALPK1 mutant (hALPK1-T237M-D1194S). Transfection was performed according to manufacturer's protocols (Lipofectamine™ 3000, ThermoFisher). Transfected cells were selected, seeded onto 96-well plates and treated with serial dilutions of the test compounds for 6.5 hr. Following treatment, cell viability was determined using a luminescent cell viability assay (Cell Counting-Lite Assay or “CCL Assay” from Vazyme Biotech Co., Ltd.) and cell free supernatants were collected and analyzed for IL-8 protein by IL-8 ELISA as described above. […] As shown in the figure, very little IL-8 was detectable in cells transfected with any of the empty vector, hALPK1, or the kinase dead hALPK1 mutant. In contrast, both of the activating mutations in hALPK1 induced significant IL-8 secretion.
# For the V1092A mutant study shown in Table 4, HEK293 cells were transiently transfected with hALPK1-V1092A or hALPK1 (wildtype) expression vectors and then treated with test compounds for 24 hours. Fresh medium and compound were added at 18 hours.
# SD rat = assay: Efficacy study in sepsis induced acute kidney injury animal model (cecal ligation and puncture); format: in vivo; details: 20 mg/kg 2 hours prior to surgery, 24 hours post-surgery
# Text: Polymicrobial sepsis induced by cecal ligation and puncture (CLP) is the most frequently used model because it closely resembles the progression and characteristics of human sepsis. We used this model system to evaluate the effects of the compound T007 in sepsis. Briefly, the SD rat cecum was ligated with sterile silk thread, and then cecum was punctured twice with a needle, gently squeezed to express a small amount of fecal material, then the abdominal incision was closed. The test compound, T007 (20 mg/kg) was administered 2 hours prior to the surgery. 24 hours post-surgery, survival was recorded, plasma was collected for MCP-1 analysis, and kidneys were collected for gene expression analysis by Q-PCR.
# T237M hALPK1 mutant = T237M hALPK1 mutant (Homo sapiens (Human), UniProt Q96QP1, T237M); assay: Inhibition of IL-8 secretion in HEK293 cells (A2) stably expressing T237M hALPK1 mutant; format: cell-based; details: 40 hours with compound, IL-8 ELISA, relative to wild-type HEK293 cells, read-out: Half maximal inhibitory concentration (IC50) of IL-8 secretion in cells expressing T237M mutant
# Chain of T237M hALPK1 mutant (Q96QP1 whole entry T237M): as the sequence (Q96QP1 whole entry V1092A) above, with T237M, A1092V counted along it
# Text: as §1, §2
# Next, we tested a representative set of compounds for inhibition of IL-8 secretion in cells expressing each of the activating ALPK1 mutants, T237M and V1092A. […] For the T237M mutant study, we produced an HEK293 cell line (“A2”) stably expressing the T237M hALPK1 mutant. A2 cells were cultured in the presence of test compound for 40 hours total. Fresh medium and compound were added at 24 hours. Cell viability and IL-8 secretion were determined 16 hours after the second addition of compound, using the CCL assay and IL-8 ELISA as described above.
# ALPK1 = ALPK1 (Homo sapiens (Human), UniProt Q96QP1); assay: ALPK1 in vitro kinase assay (HTRF, TIFA phosphorylation); format: biochemical; details: ADP-Heptose activated ALPK1
# Chain of ALPK1 (Q96QP1 whole entry): as the sequence (Q96QP1 whole entry V1092A) above, with A1092V counted along it
# [2] = system: ALPK1-dependent NFκB reporter gene activation; assay: NFκB gene reporter alkaline phosphatase assay in HEK293 G9 cells; format: cell-based; details: Homo sapiens; HEK293 G9 cells stimulated with D-glycero-D-manno-6-fluoro-heptose-1β-S-ADP
# Procedure, shortened: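 HEK293 G9 cells (stable NF-κB-driven alkaline phosphatase reporter) were seeded at 10,000/well in Freestyle 293 medium and attached overnight. They were pretreated 30 min with serially diluted compound, then stimulated with D-glycero-D-manno-6-fluoro-heptose-1β-S-ADP. Reporter phosphatase was read colorimetrically with pNPP.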
# [3] = kidney histopathology (right kidneys), vs vehicle
compound,measurement,setting,value
"C#Cc1cccc2sc(NC(=O)c3c(F)cc(N4CCNCC4)cc3F)nc12 [Compound T007, N-(4-ethynylbenzo[d]thiazol-2-yl)-2,6-difluoro-4-(piperazin-1-yl)benzamide]","Effects on SLE by proteinuria, serum anti-dsDNA antibody levels and kidney histopathology",[1]; age 13 to 22 weeks,statistically significant beneficial effects
same,Urine protein score reduction in AUC,"[1]; age 13 to 22 weeks, vs vehicle, p=0.100",34%
same,Crescent scores reduction,[1]; [3],62%
same,Glomerulus diameters reduction,[1]; [3],38%
same,Protein cast scores reduction,[1]; [3],70%
same,Urine protein scores reduction,"[1]; mouse age 21 weeks, vs vehicle",55%
same,Summed kidney scores reduction,[1]; vs vehicle,34%
same,pIC50,hALPK1-V1092A,6.39
same,Survival rate,SD rat,improved the survival rate
same,Plasma MCP-1 concentration by ELISA,SD rat; p<0.001 vs CLP-Vehicle,improved
same,"Kidney proinflammatory gene expression (IL6, TNFa, IL-1b, CCl2, KC) by Q-PCR",SD rat; p<0.05 vs CLP-Vehicle,inhibited
same,pIC50,T237M hALPK1 mutant,7.17
same,pIC50,ALPK1,8.40
same,pIC50,[2],6.33

# Source: patent US20240116885A1, “BENZOTHIAZOLE AND QUINOLINE DERIVATIVES AND THEIR USE” (Shanghai Yao Yuan Biotechnology Co., Ltd., priority 2020, published 2024)
